Assay results published in publication PMC6941357, “An in vitro toolbox to accelerate anti-malarial drug discovery and development” (Malaria Journal, 2020).

Legend:
[1] = Binding to human liver microsomes via ultracentrifugation; type: in vitro ADME; conditions: human, pH 7.4, 0.4 mg/mL protein, read-out: Fraction unbound, HLM
Outline: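 Unbound fraction by ultracentrifugation: Cunbound measured in protein-free supernate, Ctotal from spiked tubes held at 37 °C, sampled at start and end to check degradation. Matrix was 0.4 mg/mL human liver microsomal protein, 0.1 M phosphate pH 7.4; matrix-matched analysis against one calibration curve.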

[2] = In vitro metabolism (metabolic stability) in human liver microsomes; conditions: human
Outline: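 Compound depletion in human liver microsomes was followed by LC–MS at 2–60 min, with cofactor-free controls. First-order depletion rate constants gave in vitro CLint (µL/min/mg protein), corrected to unbound CLint using measured microsomal fu.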

[3] = target: CYP2D6 (Homo sapiens, UniProt P10635); test: Cytochrome P450 inhibition in human liver microsomes; conditions: for inhibition at 20 µM: human, pH 7.4; for inhibition at 20 µM / CYP2D6 % inhibition at max conc: microsomes
Sequence of CYP2D6 (P10635 whole entry, canonical isoform): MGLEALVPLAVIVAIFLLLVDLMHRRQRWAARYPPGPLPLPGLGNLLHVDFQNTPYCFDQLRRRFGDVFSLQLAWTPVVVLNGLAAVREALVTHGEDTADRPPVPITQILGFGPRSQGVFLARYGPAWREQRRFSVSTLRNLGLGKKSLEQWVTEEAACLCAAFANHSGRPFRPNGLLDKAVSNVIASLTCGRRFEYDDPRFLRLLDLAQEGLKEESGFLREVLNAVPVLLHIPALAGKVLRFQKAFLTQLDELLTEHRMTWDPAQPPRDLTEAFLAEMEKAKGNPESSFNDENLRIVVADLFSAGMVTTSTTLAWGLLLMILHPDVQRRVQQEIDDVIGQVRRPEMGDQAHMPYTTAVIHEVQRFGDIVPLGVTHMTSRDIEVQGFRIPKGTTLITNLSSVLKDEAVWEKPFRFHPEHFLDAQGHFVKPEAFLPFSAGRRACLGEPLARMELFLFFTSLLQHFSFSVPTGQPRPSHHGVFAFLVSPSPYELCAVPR
Outline: (§1)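 HLM + isoform-selective substrate; stop with cold MeCN (diazepam IS); metabolite quantified by LC–MS against calibrants made in quenched microsomal matrix. Readout = % inhibition of metabolite formation relative to no-inhibitor activity.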

[4] = target: CYP2C19 (Homo sapiens, UniProt P33261); test: as above; conditions: for CYP2C19 % inhibition at max conc / inhibition at 20 µM: microsomes; for inhibition at 20 µM: human, pH 7.4
Sequence of CYP2C19 (P33261 whole entry): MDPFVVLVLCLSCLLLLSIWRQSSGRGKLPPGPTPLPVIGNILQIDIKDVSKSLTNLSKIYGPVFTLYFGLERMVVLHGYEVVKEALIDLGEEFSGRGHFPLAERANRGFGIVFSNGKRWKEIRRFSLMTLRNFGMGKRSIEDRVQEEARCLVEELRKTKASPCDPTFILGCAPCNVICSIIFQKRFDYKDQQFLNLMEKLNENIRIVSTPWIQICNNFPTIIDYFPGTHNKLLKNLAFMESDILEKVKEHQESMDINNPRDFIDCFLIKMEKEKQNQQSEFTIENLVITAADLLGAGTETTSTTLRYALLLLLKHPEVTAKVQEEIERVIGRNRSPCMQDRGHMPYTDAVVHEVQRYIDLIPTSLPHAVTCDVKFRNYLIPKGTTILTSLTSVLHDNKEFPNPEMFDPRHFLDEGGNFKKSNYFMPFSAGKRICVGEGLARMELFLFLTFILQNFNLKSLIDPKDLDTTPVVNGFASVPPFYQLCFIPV
Outline: as §1

[5] = target: T1, CYP1A2 (Homo sapiens, UniProt P05177); test: as above
T1 sequence (P05177 1-516): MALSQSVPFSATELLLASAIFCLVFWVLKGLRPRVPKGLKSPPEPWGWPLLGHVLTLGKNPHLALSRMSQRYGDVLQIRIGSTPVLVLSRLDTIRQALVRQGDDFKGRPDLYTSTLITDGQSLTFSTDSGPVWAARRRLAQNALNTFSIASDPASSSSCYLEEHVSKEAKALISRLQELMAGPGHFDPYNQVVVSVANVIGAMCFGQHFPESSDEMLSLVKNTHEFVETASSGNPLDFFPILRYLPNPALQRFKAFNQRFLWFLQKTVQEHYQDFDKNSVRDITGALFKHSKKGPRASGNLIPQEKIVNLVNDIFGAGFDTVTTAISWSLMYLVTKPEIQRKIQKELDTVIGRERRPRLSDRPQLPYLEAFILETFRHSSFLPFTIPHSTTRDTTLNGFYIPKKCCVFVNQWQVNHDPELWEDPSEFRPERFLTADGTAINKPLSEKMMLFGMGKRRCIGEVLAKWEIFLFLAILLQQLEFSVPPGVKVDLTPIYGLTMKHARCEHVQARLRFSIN
Outline: as §1

[6] = target: CYP3A4 (Homo sapiens, UniProt P08684); test: as above; conditions: for IC50: highest concentration tested 20 µM; for inhibition at 20 µM: human; for inhibition at 20 µM / CYP3A4 (test) % inhibition at max conc / CYP3A4 (midaz) % inhibition at max conc: microsomes
Sequence of CYP3A4 (P08684 whole entry): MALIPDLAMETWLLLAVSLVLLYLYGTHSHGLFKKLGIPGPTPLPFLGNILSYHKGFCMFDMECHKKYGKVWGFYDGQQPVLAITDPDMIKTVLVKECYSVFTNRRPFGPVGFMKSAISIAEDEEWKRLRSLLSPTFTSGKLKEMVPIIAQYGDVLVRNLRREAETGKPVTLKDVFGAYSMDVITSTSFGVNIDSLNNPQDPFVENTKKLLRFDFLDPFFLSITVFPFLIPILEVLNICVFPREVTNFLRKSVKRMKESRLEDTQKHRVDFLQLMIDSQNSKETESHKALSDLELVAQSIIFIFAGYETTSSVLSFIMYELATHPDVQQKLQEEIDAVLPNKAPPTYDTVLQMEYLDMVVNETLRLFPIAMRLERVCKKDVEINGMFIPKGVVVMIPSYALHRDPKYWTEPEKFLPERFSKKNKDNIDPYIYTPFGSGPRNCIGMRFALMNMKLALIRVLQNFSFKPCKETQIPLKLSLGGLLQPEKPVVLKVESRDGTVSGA
Outline: as §1

[7] = target: CYP2C9 (Homo sapiens, UniProt P11712); test: as above
Sequence of CYP2C9 (P11712 whole entry): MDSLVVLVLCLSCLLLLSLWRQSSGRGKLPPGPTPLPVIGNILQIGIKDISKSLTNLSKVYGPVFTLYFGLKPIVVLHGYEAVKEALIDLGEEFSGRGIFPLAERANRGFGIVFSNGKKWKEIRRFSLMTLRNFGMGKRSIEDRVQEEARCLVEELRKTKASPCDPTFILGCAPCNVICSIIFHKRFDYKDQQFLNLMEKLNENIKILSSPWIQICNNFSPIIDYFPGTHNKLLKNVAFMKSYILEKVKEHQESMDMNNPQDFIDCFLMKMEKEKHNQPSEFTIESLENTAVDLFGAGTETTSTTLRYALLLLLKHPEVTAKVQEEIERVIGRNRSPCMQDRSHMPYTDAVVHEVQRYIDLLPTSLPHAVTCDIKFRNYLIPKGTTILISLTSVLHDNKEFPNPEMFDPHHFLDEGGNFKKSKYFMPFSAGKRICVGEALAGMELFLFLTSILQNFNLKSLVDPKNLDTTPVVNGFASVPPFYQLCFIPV
Outline: as §1

[8] = Solubility limited absorbable dose (SLAD) calculation with predicted human jejunal Peff; conditions: for solubility: FaSSIF
Text: Predicted Peff values were obtained from a calibration plot of literature Peff values vs measured Caco-2 Papp using either buffer or plasma as the transport medium (see Results section).

[9] = Plasma protein binding via ultracentrifugation (UC); type: in vitro ADME, human; conditions: pH 7.4
Outline: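 Pooled human plasma (3–4 donors) spiked and ultracentrifuged; protein-free supernate gave Cunbound, parallel tubes kept at 37 °C gave Ctotal and stability (start vs end). Samples matrix-matched 1:1 with opposite blank and quantified against a common calibration curve; fu SD by error propagation.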

[10] = liver microsomes, pH 7.4, HLM CLint, human liver microsomes, average of n = 2 replicates, < 7 means < 15% loss over 60 min
[11] = CYP3A4 (midaz) IC50, human liver microsomes, CYP3A4 (midaz)
[12] = CYP3A4 (test) IC50, human liver microsomes, CYP3A4 (test)
[13] = pH 7.4, CYP3A4 (midaz) % inhibition at max conc
[14] = based on ref 80 and control compounds
[15] = from Caco-2 Papp via calibration plot
[16] = human, neat pooled plasma, ultracentrifugation, neat plasma, read-out: Fraction unbound, human plasma
[17] = pH 7.4, CYP3A4 (test) % inhibition at max conc

Structure (SMILES) | fraction unbound at […] ([1]; liver microsomes) | microsomal CLint at 1 µM [2, 10] [µL/min/mg] | IC50 [3] [µM] | Ki [3] [µM] | IC50 [4] [µM] | CYP2C19 % inhibition at max conc [4] | IC50 [5] [µM] | IC50 [6, 11] [µM] | IC50 [6, 12] [µM] | inhibition at 20 µM [6, 13] [%] | CYP3A4 (test) % inhibition at max conc [6] | IC50 [7] [µM] | CYP2C9 % inhibition at max conc ([7]; microsomes) | solubility [8] [µg/mL] | An (absorption number) ([8]; Peff × tres/R, minimum 1) | SLAD ([8]; Ssi × V (500 mL) × Mp) [mg] | Permeability classification [8, 14] | Predicted human Peff [8, 15] | fraction unbound at […] [9, 16] | CYP1A2 % inhibition at max conc ([5]; microsomes) | other results
COc1ccc2nc3cc(Cl)ccc3c(Nc3cc(CN4CCCC4)c(O)c(CN4CCCC4)c3)c2n1 [Pyronaridine] | 0.29 ± 0.018 | 8.6 | 1.2 | 0.75 | > 20 | nmi | > 20 | > 20 | > 20 | 28 | nmi | > 20 | nmi | > 2000 | 1.6 | > 1610 | High (> 85% absorption (high)) | 1.4 10^−4 cm/s | 0.21 | – | inhibition at 20 µM ([5]; human, microsomes, pH 7.4): 30%
[H]/N=C(\N/C(=N/[H])Nc1ccc(Cl)cc1)NC(C)C [Proguanil] | 0.33 ± 0.014 | < 7 | 3.5 | 2.2 | > 20 | – | > 20 | – | – | – | – | > 20 | nmi | > 2000 | 1.0 | > 1000 | Intermediate (50–84% absorption (intermediate)) | 0.71 10^−4 cm/s | 0.34 ± 0.01 | nmi | inhibition at 20 µM [4]: 27%; inhibition at 20 µM [6, 17]: 24%; CYP3A4 (midaz) % inhibition at max conc [6]: nmi
CC(C)(N)CNC(=O)C[C@H]1CC[C@]2(CC1)OO[C@]1(O2)C2CC3CC(C2)CC1C3 [OZ277, Arterolane] | – | – | > 20 | – | > 20 | – | > 20 | > 20 | > 20 | 26 | – | > 20 | – | > 2000 | 3.2 | > 3240 | High (> 85% absorption (high)) | 2.7 10^−4 cm/s | 0.086 ± 0.008 | – | fraction unbound at […] ([1]; microsomes): 0.044 ± 0.005; microsomal CLint at 1 µM ([2]; microsomes, pH 7.4, HLM CLint): < 7 µL/min/mg; CYP1A2 % inhibition at max conc ([5]; human liver microsomes, at max conc, nmi = no measurable inhibition): nmi; inhibition at 20 µM [6, 17]: 46%; fraction unbound at […] ([9]; human plasma, fraction unbound, read-out: Plasma fu): 0.086
CCc1nc(N)nc(N)c1-c1ccc(Cl)cc1 [Pyrimethamine] | 0.54 ± 0.097 | < 7 | > 20 | – | – | nmi | > 20 | – | – | – | – | – | nmi | – | 5.9 | 326 | High (> 85% absorption (high)) | 4.9 10^−4 cm/s | 0.085 | nmi | inhibition at 20 µM [3]: 36%
CC[C@H]1OC(=O)[C@H](C)[C@@H](O[C@H]2C[C@@](C)(OC)[C@@H](O)[C@H](C)O2)[C@H](C)[C@@H](O[C@@H]2O[C@H](C)C[C@H](N(C)C)[C@H]2O)[C@](C)(O)C[C@@H](C)CN(C)[C@H](C)[C@@H](O)[C@]1(C)O [Azithromycin] | 0.7 ± 0.06 | < 7 | > 20 | – | > 20 | – | > 20 | – | – | – | – | > 20 | nmi | – | 1.0 | 720 | Low (< 50% absorption (low)) | 0.16 10^−4 cm/s | 0.71 | nmi | CYP2D6 % inhibition at max conc [3]: nmi; inhibition at 20 µM [4]: 29%
COc1cc(NC(C)CCCN)c2ncccc2c1 (stereo not shown) [Primaquine] | – | – | – | – | – | – | – | – | – | 31 | nmi | – | – | > 2000 | – | – | – | – | – | – | fraction unbound at […] ([1]; microsomes): 0.56 ± 0.05; microsomal CLint at 1 µM ([2]; microsomes, pH 7.4): 7.7 µL/min/mg; inhibition at 20 µM [3]: 33%; inhibition at 20 µM [4]: 34%; inhibition at 20 µM ([7]; human, microsomes, pH 7.4): 20%; Permeability classification [8]: High (key: High: > 85% absorption (high); Intermediate: 50–84% absorption (intermediate); Low: < 50% absorption (low)); An (absorption number) ([8]; human): 3.6; Predicted human Peff ([8]; human): 3.0 10^−4 cm/s; SLAD ([8]; human): > 3560 mg; fraction unbound at […] ([9]; human, ultracentrifugation, neat plasma, read-out: Fraction unbound, human plasma): 0.26 ± 0.023
CC1(C)N=C(N)N=C(N)N1c1ccc(Cl)cc1 [Cycloguanil] | 0.72 ± 0.083 | < 7 | 6 | 3.7 | > 20 | nmi | > 20 | > 20 | > 20 | – | nmi | > 20 | nmi | – | – | – | – | – | 0.75 ± 0.04 | nmi | CYP3A4 (midaz) % inhibition at max conc [6]: nmi
C[C@H]1c2cccc(O)c2C(=O)C2=C(O)[C@]3(O)C(=O)C(C(N)=O)=C(O)[C@@H](N(C)C)[C@@H]3[C@@H](O)[C@@H]21 [Doxycyclin] | 0.93 ± 0.045 | < 7 | > 20 | – | > 20 | nmi | – | > 20 | > 20 | – | – | > 20 | nmi | > 2000 | 1.0 | > 1000 | Intermediate (50–84% absorption (intermediate)) | 0.70 10^−4 cm/s | 0.23 | – | CYP2D6 % inhibition at max conc [3]: nmi; inhibition at 20 µM [6, 17]: 22%; CYP3A4 (midaz) % inhibition at max conc [6]: nmi
